Laboratory results as given in patent US10973840B2, “Methods of sensitizing tumor cells to weak base chemotherapeutic drugs” (SOCPRA SCIENCES SANTÉ ET HUMAINES S.E.C., priority 2017, dated 2021).
Like-named read-outs stand apart in the source and are kept apart here.

What was measured:
[1] = test system: NHE6 or NHE9 knockdown cells; assay: MTT cell viability assay in NHE6 or NHE9 knockdown cells; format: cell-based, human; settings: for IC50: Homo sapiens
Procedure: Lentiviruses and cell transduction pLKO.1-NHE6 and pLKO.1-NHE9 shRNA (Sigma-Aldrich) were co-transfected with ViraPower™ Lentiviral Packaging Mix (Invitrogen) into HEK293T cells according to manufacturer's instructions. Viruses were collected and concentrated by ultracentrifugation 72 h after transfection. HT-1080 and MDA-MB-231 cells were infected overnight with viruses and selected with puromycin (2 μg/ml) on the third day following transduction.
(§1) Cells (5×10^3) were cultured in 96-well plates and pre-incubated under 21% O2 or 1% O2 for 4 h following the addition of drugs for 72 h. Cell viability was measured using the 3-(4,5-dimethylthiazol-2-yl)-2,5-diphenyltetrazolium bromide (MTT) dye (Life Technologies) according to manufacturer's instructions. Because hypoxic conditions may affect the reduction of MTT to formazan, incubation of all cell cultures with MTT were performed under normoxic conditions. Each experiment was performed in triplicate and at least three independent experiments were performed. Log-scale dose-response data were plotted on a graph and a three-parameter non-linear regression was applied to determine IC50 values. For calculation of the IC50s, both normoxic and hypoxic drug-treated samples were normalized with their untreated counterpart.

[2] = test system: MDA-MB-231 tumor xenografts; assay: Chorioallantoic membrane (CAM) xenograft assay, MDA-MB-231; format: in vivo, chick embryo; settings: MDA-MB-231 on CAM
Procedure: (§2) Fertilized eggs from white leghorn chicken were obtained from Public Health Agency of Canada (Nepean, ON). Ethics approval was obtained from the Ethics Committee on Animal Research of the University of Sherbrooke and all experimental procedures involving embryos were conducted in accordance with the regulations of the Canadian Council on Animal Care. Eggs were incubated in an Ova-Easy egg incubator (Brinsea) at 37° C. with 60% humidity. At Day 3, eggs were cracked as described^67. At Day 9, HT-1080 and MDA-MB-231 cell suspensions (1×10^6 and 2×10^6 cells, respectively) were mixed (1:1) with growth factor reduced Matrigel (BD Biosciences) in a total volume of 20 μl. Cell grafts were placed on top of the CAM and eggs were returned to the incubator for 96 h until Day 13 (n>6 chick embryos per cell line). When mentioned, 50 μl of Dox were added topically to the formed tumors (Day 13 after tumor cell grafting). At Day 16, chick embryos were euthanatized by decapitation. Tumors were removed and tumor volumes were calculated using the formula: (Dd^2/3). For RNA quantification, tumors were immediately snap-frozen in liquid nitrogen and kept at −80° C. until RNA extraction using the Trizol reagent.
(§3) To determine whether these observations were of relevance to tumor therapy in vivo, the inventors used an ex ovo chorioallantoic membrane (CAM) xenograft model in live chicken embryos^40. MDA-MB-231 or HT-1080 cells, or cells expressing either the NHE6^527-588 competing fragment or its scrambled counterpart were inoculated onto the CAM of 9-day-old chick embryos. After allowing 3 days for cells to engraft, tumors were treated with Doxorubicin or PBS. Four days later, chick embryos were euthanized, and tumors were removed for analysis (FIG. 10A). To first ascertain that tumors implanted in CAM developed hypoxia, total mRNA was extracted from tumors generated by untransfected HT-1080 cells and gene expression of the hypoxic markers CA9, GLUT1 and MCT4 was measured by qPCR. […]

[3] = test system: HT-1080 fibrosarcoma cells; assay: MTT cell viability assay, HT-1080; format: cell-based, human; settings: for Fold change: HT-1080, IC50 at 1% O2 to IC50 at 21% O2; for IC50: Homo sapiens
Procedure: as §1
To assess the role of pH in hypoxia-induced resistance to anthracyclines, the human breast cancer MDA-MB-231 and fibrosarcoma HT-1080 cell lines were incubated in the presence or absence of the commonly used anthracycline drugs, doxorubicin (Dox), daunorubicin (Dau) and the anthracycline analog drug, mitoxantrone (Mtx), under hypoxic (1% O2) or normoxic (21% O2) conditions for 72 hours. Cell viability was then assessed using the MTT assay. The impact of extracellular pH on Dox uptake by HT-1080 was also assessed.

HT-1080 tumor xenografts = assay: Chorioallantoic membrane (CAM) xenograft assay, HT-1080; format: in vivo, chick embryo; settings: HT-1080 on CAM
Procedure: as §2, §3

IC50 ([3]; HT-1080, 72 h, HT-1080, 1% O2, 72 h, read-out: IC50 of anthracyclines): 301 nM
IC50 ([3]; HT-1080, 72 h, HT-1080, 21% O2, 72 h, read-out: IC50 of anthracyclines): 73.4 nM
IC50 ([3]; HT-1080, HT-1080, 1% O2, Baf 100 nM or Cq 10 μM where combined, read-out: IC50 of doxorubicin, cells treated with neutralizing agents): 448 nM
IC50 ([3]; HT-1080, HT-1080, 21% O2, Baf 100 nM or Cq 10 μM where combined, read-out: IC50 of doxorubicin, cells treated with neutralizing agents): 113 nM
Compound: COc1cccc2c1C(=O)c1c(O)c3c(c(O)c1C2=O)C[C@@](O)(C(=O)CO)C[C@@H]3O[C@H]1C[C@H](N)[C@H](O)[C@H](C)O1 [Dox, doxorubicin]
IC50 ([1]; scrambled shRNA, 1% O2): 459 nM
IC50 ([1]; scrambled shRNA, 21% O2): 179 nM
IC50 ([1]; shRNA NHE6, 21% O2): 421 nM
IC50 ([1]; shRNA NHE9, 21% O2): 202 nM
increase in cell resistance to Dox ([1]; NHE6 knockdown, normoxic cells): 2.4 fold
Fold (compared to scrambled 21% O2) ([1]; scrambled shRNA, 1% O2): 2.5 fold
Fold (compared to scrambled 21% O2) ([1]; scrambled shRNA, 21% O2): 1.0 fold
Fold (compared to scrambled 21% O2) ([1]; shRNA NHE6, 21% O2): 2.4 fold
Fold (compared to scrambled 21% O2) ([1]; shRNA NHE9, 21% O2): 1.1 fold
tumor growth ([2]; 1 μM Dox): unaffected
tumor growth ([2]; 5 μM Dox topical): significantly reduced
Fold change [3]: 4.1 fold
Fold change ([3]; Baf 100 nM or Cq 10 μM where combined): 4.0 fold
increase in resistance toward the drug by hypoxia ([3]; HT-1080 cells (so in the source), 1% O2 vs 21% O2): 5.5 fold
tumor growth (HT-1080 tumor xenografts; 0.5 μM Dox): unaffected
tumor growth (HT-1080 tumor xenografts; 2 μM Dox topical): significantly reduced
